Test results as given in the NIST ThermoML archive (doi:10.1021/je400076x).
Numbers after ± are expanded uncertainties.

Conditions: Crystal; DTA

## CCCCn1cc[n+](C)c1.[Cl-] [1-butyl-3-methylimidazolium chloride]
  Normal melting temperature: 60.30 ± 5 °C
